How the values were obtained:
[1] = tested on: mice; test: acetic acid-induced writhing test; assay type: in vivo, Male ICR mice
Method: (§1) In the following Examples, all extracts and drugs used were dissolved in physiological saline before use for i.p. administration and the dose was 0.1 ml of physiological saline per 10 g of mouse body weight in either case. All extracts and drugs were suspended in physiological saline containing 1% sodium carboxymethylcellulose before use for oral administration and the dose was 0.1 ml of 1% sodium carboxymethylcellulose-containing physiological saline suspension per 10 g of mouse body weight in either case. Male ICR mice (Japan SLC) having a body weight of 25 to 30 g were used in the tests below unless otherwise stated, and were fed in advance at a room temperature of 23±1° C. and a relative humidity of 55±5% in the environment of a cycle of 12-hour-light from 7 a.m. to 7 p.m. and 12-hour-dark from 7 p.m. to 7 a.m. for 3 to 5 days. The mice were allowed to have water and feed freely.
An acetic acid-induced writhing test is a method wherein analgesic action of a compound is determined utilizing this. The number of this writhing is compared between a physiological saline-administered control group and a test drug-administered group, and suppression of the number of writhing by the test drug is investigated thereby assessing its analgesic action.
Seven to ten mice per group were used. Neferine hydrochloride was subcutaneously administered to mice at their back at a dose of 5 mg/kg, 10 mg/kg, 25 mg/kg, 50 mg/kg or 100 mg/kg and, after 15 minutes, a 0.6% by weight solution of acetic acid in water was intraperitoneally administered at 0.1 mL/10 g body weight. The number of writhing was counted every ten minutes for 30 minutes from immediately after acetic acid administration (0 to 10 min, 10 to 20 min, 20 to 30 min). In addition, the total number of writhing for 30 minutes from immediately after acetic acid administration was also obtained. Regarding the resulting measurements, a significant difference test was performed by a Dunnet multiple comparison test method.
According to the same manner as in acetic acid-induced writhing test-1 except that acetic acid was intraperitoneally administered 30 minutes after subcutaneous administration of neferine in the aforementioned acetic acid-induced writhing test-1, an acetic acid-induced writhing test was performed. However, the dose of neferine was only 50 mg/kg.
According to the same manner as in the acetic acid-induced writhing test-1 except that acetic acid was intraperitoneally administered 30 minutes after oral administration of neferine in the aforementioned acetic acid-induced writhing test-1, an acetic acid-induced writhing test was performed. However, five to six mice per group were used. The dose of neferine was 10 mg/kg and 50 mg/kg. Further, aspirin was used as a positive control drug. The dose of aspirin was 50 mg/kg.
(§2) According to the same manner as in acetic acid-induced writhing test-1 except that armepavine was used in place of neferine in the aforementioned acetic acid-induced writhing test-1, an acetic acid-induced writhing test was performed. However, the dose of armepavine was 5 mg/kg and 10 mg/kg.
as §2, with “O-methylarmepavine” for “armepavine”

[2] = Seibu et al., Journal of Natural Products 49 (1986); no specific data; cited from earlier work
[3] = tested on: mice; test: glass ball-covering behavior test (obsessive compulsive disorders); assay type: in vivo, Male ICR mice
Method: as §1
In evaluating glass ball-covering behavior, wood chip for breeding (beta chip) (Oriental Yeast Co., Ltd.) was placed in the transparent cage described in Example 3 to a depth of 5 cm, on which 20 glass balls (diameter: 1.5 cm) were placed evenly.
Twenty-one mice were grouped into three groups each of seven mice, to which 25 mg/kg of neferine hydrochloride (treatment group 6-1), 50 mg/kg of the same (treatment group 6-2), and physiological saline (negative control group) were administered intraperitoneally, respectively. A mouse was placed in the cage 15 minutes after administration, and the number of the glass balls not covered with the wood chip was counted by visual observation at an interval of 10 minutes. The number of balls having ⅔ or more of the surface thereof being embedded in the wood chip when the cage was observed from above was counted as the criteria for judgment.

[4] = tested on: mice; test: tail flick test; assay type: in vivo, Male ICR mice; details: 15 minutes after administration, cut off time 10 seconds
Method: as §1, with “The mice were allowed to have water and feed freely.” left out
A tail flick test is a method in which, when radiant heat stimulation is locally added to a part of a tail 1 to 2 cm away from the tail root part of a mouse, a reaction of raising a tail as a provisional pain reaction is manifested, and anti-invasion action is determined by utilizing this reaction.
Seven to nine mice per group were used. […] The reaction that a mouse raised a tail upon addition of radiant heat was regarded as a provisional pain reaction, and a time until its manifestation (latency time) was measured. […]

[5] = 5 mg/kg s.c. 15 minutes before acetic acid
[6] = 10 mg/kg oral 30 minutes before acetic acid
[7] = 10 mg/kg s.c. 15 minutes before acetic acid
[8] = 25 mg/kg s.c. 15 minutes before acetic acid
[9] = 50 mg/kg oral 30 minutes before acetic acid
[10] = 50 mg/kg s.c. 15 minutes before acetic acid
[11] = 50 mg/kg s.c. 30 minutes before acetic acid
[12] = 100 mg/kg s.c. 15 minutes before acetic acid

For `COc1ccc(C[C@@H]2c3cc(Oc4cc(C[C@@H]5c6cc(OC)c(OC)cc6CCN5C)ccc4O)c(OC)cc3CCN2C)cc1` [neferine], the “Number of writhing 0-10 min.” value [1, 5] was 21.8 ± 2.30, the “Number of writhing 0-30 min.” value [1, 5] was 51.0 ± 5.34 and the “Number of writhing 10-20 min.” value [1, 5] was 19.0 ± 2.14. For the same molecule, the “Number of writhing 20-30 min.” value [1, 5] was 10.7 ± 2.04, the “Number of writhing 0-10 min.” value [1, 6] was 7.6 ± 1.63 and the “Number of writhing 0-30 min.” value [1, 6] was 23.3 ± 1.52. For the same molecule, the “Number of writhing 10-20 min.” value [1, 6] was 9.2 ± 1.35, the “Number of writhing 20-30 min.” value [1, 6] was 6.5 ± 2.50 and the “Number of writhing 0-10 min.” value [1, 7] was 12.1 ± 1.91. The “Number of writhing 0-30 min.” value [1, 7] was 31.6 ± 6.15, the “Number of writhing 10-20 min.” value [1, 7] was 11.6 ± 2.66 and the “Number of writhing 20-30 min.” value [1, 7] was 7.9 ± 3.06. The “Number of writhing 0-10 min.” value [1, 8] was 8.9 ± 2.22, the “Number of writhing 0-30 min.” value [1, 8] was 19.4 ± 3.48 and the “Number of writhing 10-20 min.” value [1, 8] was 6.9 ± 1.90. For the same molecule, the “Number of writhing 20-30 min.” value [1, 8] was 3.6 ± 1.19, the “Number of writhing 0-10 min.” value [1, 9] was 2.4 ± 1.94 and the “Number of writhing 0-30 min.” value [1, 9] was 8.0 ± 3.08. For the same molecule, the “Number of writhing 10-20 min.” value [1, 9] was 4.0 ± 1.30, the “Number of writhing 20-30 min.” value [1, 9] was 1.6 ± 0.81 and the “Number of writhing 0-10 min.” value [1, 10] was 5.7 ± 1.38. The “Number of writhing 0-30 min.” value [1, 10] was 19.7 ± 3.56, the “Number of writhing 10-20 min.” value [1, 10] was 5.7 ± 1.38 and the “Number of writhing 20-30 min.” value [1, 10] was 5.3 ± 2.15. The “Number of writhing 0-10 min.” value [1, 11] was 10.6 ± 2.53, the “Number of writhing 0-30 min.” value [1, 11] was 27.4 ± 3.73 and the “Number of writhing 10-20 min.” value [1, 11] was 10.3 ± 1.90. The “Number of writhing 20-30 min.” value [1, 11] was 6.6 ± 1.53, the “Number of writhing 0-10 min.” value [1, 12] was 4.0 ± 1.22 and the “Number of writhing 0-30 min.” value [1, 12] was 14.9 ± 2.16. For the same molecule, the “Number of writhing 10-20 min.” value [1, 12] was 6.7 ± 1.31, the “Number of writhing 20-30 min.” value [1, 12] was 4.2 ± 1.02 and the “dose showing significant analgesic action against the negative control group” value ([1]; 15 minute-before subcutaneous administration) was at least 10 mg/kg. For the same molecule, the “analgesic action compared with aspirin” value ([1]; oral administration 30 minutes before acetic acid) was “strong analgesic action as compared with aspirin”, the antihypertensive action [2] was “exhibited an antihypertensive action” and the “Number of glass balls covered with wood chip After 20 minutes” value ([3]; 25 mg/kg i.p.) was 7. For the same molecule, the “Number of glass balls covered with wood chip After 30 minutes” value ([3]; 25 mg/kg i.p.) was 10, the “Number of glass balls covered with wood chip After 10 minutes” value ([3]; 25 mg/kg i.p., placed in cage 15 minutes after administration) was 4 and the “Number of glass balls covered with wood chip After 10 minutes” value ([3]; 50 mg/kg i.p.) was 3. For the same molecule, the “Number of glass balls covered with wood chip After 20 minutes” value ([3]; 50 mg/kg i.p.) was 6, the “Number of glass balls covered with wood chip After 30 minutes” value ([3]; 50 mg/kg i.p.) was 9 and the “% MPE” value ([4]; 50 mg/kg i.p.) was 5.0 ± 2.30%. The “% MPE” value ([4]; 100 mg/kg i.p.) was 15.6 ± 2.89 %.

Reference: US20070027181A1, “Benzylisoquinoline derivative- or bisbenzylisoquinoline derivative-containing psychotropic agent, analgesic and/or antiphlogistic, and health food” (EDUCATION CENTER OF TRADITIONAL, priority 2004, published 2007)
